Source: US20110034441A1, “INDAZOLES AS WNT/B-CATENIN SIGNALING PATHWAY INHIBITORS AND THERAPEUTIC USES THEREOF” (EPITHERIX, LLC, priority 2009, published 2011)
Like-named read-outs stand apart in the source and are kept apart here.

Tested on: Wnt
Experiment: Wnt reporter screening assay: SP5 promoter (TCF/LEF) firefly luciferase in SW480 cells
Format: cell-based
Settings: SW480 colon cancer cells with SP5 promoter luciferase reporter, 24 hours after compound addition, normalized to DMSO, read-out: Wnt inhibition, IC50
Source text: Another screening assay for Wnt activity is described as follows. Reporter cell lines can be generated by stably transducing cells of cancer cell lines (e.g., colon cancer) with a lentiviral construct that include a wnt-responsive promoter driving expression of the firefly luciferase gene.
Lentiviral constructs can be made in which the SP5 promoter, a promoter having eight TCF/LEF binding sites derived from the SP5 promoter, is linked upstream of the firefly luciferase gene. The lentiviral constructs can also include a hygromycin resistance gene as a selectable marker. The SP5 promoter construct can be used to transduce SW480 cells, a colon cancer cell line having a mutated APC gene that generates a truncated APC protein, leading to de-regulated accumulation of β-catenin.
Cultured SW480 cells bearing a reporter construct can be distributed at approximately 10,000 cells per well into 384 well multiwell plates. Compounds from a small molecule compound library can then be added to the wells in half-log dilutions using a three micromolar top concentration. A series of control wells for each cell type receive only buffer and compound solvent. Twenty-four hours after the addition of compound, reporter activity for luciferases can be assayed, for example, by addition of the BrightGlo luminescence reagent (Promega) and the Victor3 plate reader (Perkin Elmer). Readings can be normalized to DMSO only treated cells, and normalized activities can then be used in the IC50 calculations.

Molecule	IC50 (Homo sapiens)	IC50
O=C(c1ccc2[nH]nc(-c3nc4ccccc4[nH]3)c2c1)N1CCCCC1 [Compound 26, (3-(1H-benzo[d]imidazol-2-yl)-1H-indazol-5-yl)(piperidin-1-yl)methanone]	> 10000 nM	–
N#Cc1ccc2[nH]nc(-c3nc4ccccc4[nH]3)c2c1 [Compound 27, 3-(1H-benzo[d]imidazol-2-yl)-1H-indazole-5-carbonitrile]	> 10000 nM	–
NC(=O)c1ccc2[nH]nc(-c3nc4ccccc4[nH]3)c2c1 [Compound 28, 3-(1H-benzo[d]imidazol-2-yl)-1H-indazole-5-carboxamide]	1000 nM	–
O=C(O)c1ccc2[nH]nc(-c3nc4ccccc4[nH]3)c2c1 [Compound 29, 3-(1H-benzimidazol-2-yl)-1H-indazole-5-carboxylic acid]	> 10000 nM	–
CN(C)C(=O)c1ccc2[nH]nc(-c3nc4ccccc4[nH]3)c2c1 [Compound 30, 3-(1H-benzo[d]imidazol-2-yl)-N,N-dimethyl-1H-indazole-5-carboxamide]	2000 nM	–
CCNCc1cncc(-c2ccc3[nH]nc(-c4nc5ccccc5[nH]4)c3c2)c1C [Compound 31, N-((5-(3-(1H-benzo[d]imidazol-2-yl)-1H-indazol-5-yl)-4-methylpyridin-3-yl)methyl)ethanamine]	243 nM	–
CCNCc1cncc(-c2ccc3[nH]nc(-c4nc5c(-n6cnc(C)c6)cccc5[nH]4)c3c2)c1C [Compound 32, N-((4-methyl-5-(3-(4-(4-methyl-1H-imidazol-1-yl)-1H-benzo[d]imidazol-2-yl)-1H-indazol-5-yl)pyridin-3-yl)methyl)ethanamine]	40 to 63 nM	–
CCNCc1cncc(-c2ccc3[nH]nc(-c4nc5ccc(COC)cc5[nH]4)c3c2)c1C [Compound 33]	680 nM	–
Cc1cn(-c2cccc3[nH]c(-c4n[nH]c5ccc(-c6cnccc6C)cc45)nc23)cn1 [Compound 34, 3-(4-(4-methyl-1H-imidazol-1-yl)-1H-benzo[d]imidazol-2-yl)-5-(4-methylpyridin-3-yl)-1H-indazole]	10 to 46 nM	–
CCNCc1cncc(-c2ccc3[nH]nc(-c4nc5c(N6CCCCC6)cccc5[nH]4)c3c2)c1C [Compound 35, N-((4-methyl-5-(3-(4-(piperidin-1-yl)-1H-benzo[d]imidazol-2-yl)-1H-indazol-5-yl)pyridin-3-yl)methyl)ethanamine]	147 to 243 nM	–
CCNCc1cncc(-c2ccc3[nH]nc(-c4nc5c(N6CCCC6)cccc5[nH]4)c3c2)c1C [Compound 36, N-((4-methyl-5-(3-(4-(pyrrolidin-1-yl)-1H-benzo[d]imidazol-2-yl)-1H-indazol-5-yl)pyridin-3-yl)methyl)ethanamine]	750 nM	–
CCNCc1cncc(-c2ccc3[nH]nc(-c4nc5c(-c6cccnc6)cccc5[nH]4)c3c2)c1C [Compound 37, N-((4-methyl-5-(3-(4-(pyridin-3-yl)-1H-benzo[d]imidazol-2-yl)-1H-indazol-5-yl)pyridin-3-yl)methyl)ethanamine]	200 to 240 nM	–
CCNCc1cncc(-c2ccc3[nH]nc(-c4nc5ccccc5[nH]4)c3c2)c1 [Compound 38, N-((5-(3-(1H-benzo[d]imidazol-2-yl)-1H-indazol-5-yl)pyridin-3-yl)methyl)ethanamine]	124 to 235 nM	–
CCNCc1cncc(-c2ccc3[nH]nc(-c4nc5c(-c6ccccc6)cccc5[nH]4)c3c2)c1C [Compound 39, N-((4-methyl-5-(3-(4-phenyl-1H-benzo[d]imidazol-2-yl)-1H-indazol-5-yl)pyridin-3-yl)methyl)ethanamine]	690 to 730 nM	–
CCNCc1cncc(-c2ccc3[nH]nc(-c4nc5c(-c6cccc(C)c6)cccc5[nH]4)c3c2)c1C [Compound 40, N-((4-methyl-5-(3-(4-m-tolyl-1H-benzo[d]imidazol-2-yl)-1H-indazol-5-yl)pyridin-3-yl)methyl)ethanamine]	670 to 860 nM	–
CCNCc1cncc(-c2ccc3[nH]nc(-c4nc5c(-c6ccc(C)cc6)cccc5[nH]4)c3c2)c1C [Compound 41, N-((4-methyl-5-(3-(4-p-tolyl-1H-benzo[d]imidazol-2-yl)-1H-indazol-5-yl)pyridin-3-yl)methyl)ethanamine]	330 to 470 nM	–
CCNCc1cncc(-c2ccc3[nH]nc(-c4nc5c(-c6ccccc6C)cccc5[nH]4)c3c2)c1C [Compound 42, N-((4-methyl-5-(3-(4-o-tolyl-1H-benzo[d]imidazol-2-yl)-1H-indazol-5-yl)pyridin-3-yl)methyl)ethanamine]	2500 to 3600 nM	–
CCNC(=O)c1cncc(-c2ccc3[nH]nc(-c4nc5ccccc5[nH]4)c3c2)c1 [Compound 44, 5-(3-(1H-benzo[d]imidazol-2-yl)-1H-indazol-5-yl)-N-ethyl nicotinamide]	960 to 1560 nM	–
O=C(NCc1ccccc1)c1cncc(-c2ccc3[nH]nc(-c4nc5ccccc5[nH]4)c3c2)c1 [Compound 45, 5-(3-(1H-benzo[d]imidazol-2-yl)-1H-indazol-5-yl)-N-benzylnicotinamide]	1230 to 2280 nM	–
Cc1cc(C)cc(-c2ccc3c(NC(=O)NCC4CC4)n[nH]c3c2)c1 [Compound 48]	390 nM	–
Cc1ccc(-n2nc(C(N)=O)c3ccc4[nH]ncc4c32)cc1 [Compound 123]	1220 nM	–
N-ethyl-4-methyl-5-(3-(4-(4-methyl-1H-imidazol-1-yl)-1H-benzo[d]imidazol-2-yl)-1H-indazol-5-yl)nicotinamide [Compound 43]	–	77 to 96 nM
